Experiments:
ΔN-VDAC1 = biological target: T1, ΔN-VDAC1 (Mus musculus, UniProt Q60932); test: Channel conductance of N-terminally truncated VDAC1 reconstituted into a planar lipid bilayer; type: biochemical, murine; conditions: after addition of 40 μg/ml SOD1, mean ± SEM
T1 construct: inferred from pET21a vector, XhoI cloning and Ni-NTA purification) (C); made in house; host or cells: Escherichia coli BL21(DE3)
Description: (§1) Protein expression was induced for 3 h using 1 mM isopropyl-β-D-thiogalactopyranoside (IPTG; Sigma). Proteins were purified on agarose-packed nickel-nitrilotriacetic acid resin (Ni-NTA; Qiagen) in the presence of 8 M urea. Refolding of the eluted protein was performed essentially as described previously ([Hiller et al., 2008]).
The reconstitution of recombinant WT or ΔN-VDAC1 into a planar lipid bilayer (PLB) prepared from soybean asolectin, and subsequent single channel current recordings and data analysis were carried out as described previously ([Gincel et al., 2001]). Currents were recorded under voltage-clamp conditions before and 5 min after the addition of 40 μg of recombinant hSOD1^wt, hSOD1^G93A, or hSOD1^G85R to the cis compartment using a Bilayer Clamp BC-535B amplifier (Warner Instrument, Hamden, CT, United States). Current amplitude histograms were prepared using AxoGraph X software. Relative conductance was determined as the average steady-state conductance at a given voltage normalized to the conductance at 10 mV, the maximal conductance. Relative conductance-voltage plots were prepared using Microsoft Excel software.
(C) Relative conductance of ΔN-VDAC1 as a function of voltage in a step from 60 to –60 mV before (▲) and after addition of SOD1^WT (Δ). Relative conductance (conductance/maximal conductance) was determined as the average steady-state conductance at a given voltage normalized to the conductance at 10 mV, taken as the maximal conductance. […] (E–H) Similar experiments as in (A–D), except that mutant SOD1^G93A was used. (I–L) Similar experiments as in (A–D), except that mutant SOD1^G85R was used.

[1] = biological target: T2, recombinant full length VDAC1 (Mus musculus, UniProt Q60932); test: Channel conductance of full length VDAC1 reconstituted into a planar lipid bilayer; type: biochemical, murine; conditions: for Conductance, VDAC1 + SOD1: planar lipid bilayer, after addition of 40 μg/ml SOD1, mean ± SEM, SEM
T2 construct: inferred from pET21a vector, XhoI cloning and Ni-NTA purification) (C); made in house; host or cells: Escherichia coli BL21(DE3)
T2 sequence (Q60932 14-296): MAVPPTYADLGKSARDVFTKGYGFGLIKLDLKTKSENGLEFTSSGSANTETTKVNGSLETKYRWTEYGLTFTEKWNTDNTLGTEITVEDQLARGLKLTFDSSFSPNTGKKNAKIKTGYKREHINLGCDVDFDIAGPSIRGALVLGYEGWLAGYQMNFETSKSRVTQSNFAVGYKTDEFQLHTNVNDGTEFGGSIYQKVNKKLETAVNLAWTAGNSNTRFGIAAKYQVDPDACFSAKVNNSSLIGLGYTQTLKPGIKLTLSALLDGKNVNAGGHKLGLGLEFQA
Description: as §1
Currents were recorded under voltage-clamp conditions before and 5 min after the addition of 40 μg of recombinant hSOD1^wt, hSOD1^G93A, or hSOD1^G85R to the cis compartment using a Bilayer Clamp BC-535B amplifier (Warner Instrument, Hamden, CT, United States). Current amplitude histograms were prepared using AxoGraph X software. […] Relative conductance-voltage plots were prepared using Microsoft Excel software.
Relative conductance (conductance/maximal conductance) was determined as the average steady-state conductance at a given voltage normalized to the conductance at 10 mV, considered the maximal conductance.

NSC-34 cells = test: Cell death, PI staining and flow cytometry, NSC-34; type: cell-based, mouse; conditions: 5 h, serum-free medium, 37°C
Description: (§2) NSC-34 cells, a mouse motor neuron-like hybrid cell line, the A549 human lung adenocarcinoma and U-87MG human glioblastoma cell lines were incubated with the (1-26)N-Ter-Antp, D-(15-26)N-Ter-Antp, (1-20)N-Ter-Antp, (5-20)N-Ter-Antp, or (10-20)N-Ter-Antp peptides in the appropriate serum-free growth medium for 5 h at 37°C. Cells were harvested, and analyzed for cell death using propidium iodide (PI) staining and flow cytometry. For XTT, the CellTiter 96 AQueous one-solution cell proliferation assay was used to follow cell viability as described previously ([Leyton-Jaimes et al., 2016]).
(§3) NSC-34 (A), U-87MG (B), or A549 (C) cells were incubated with the indicated concentrations of (1-26)N-Ter-Antp (∙), D-(15-26) (19-26)N-Ter-Antp (▲), (1-20)N-Ter-Antp (∘), (5-20)N-Ter-Antp (□) or (10-20)N-Ter-Antp (◆) peptide for 5 h. Cell death was analyzed using PI staining and flow cytometry. […] Cell viability analysis was performed with the CellTiter 96 AQueous one-solution cell proliferation assay with ELISA at 490 nm. […] The significance of quantitative analysis of triplicates of different biological repeats (n = 3) was performed by Student’s t-test; ^∗∗P < 0.01. […] Twenty-four hours post-transfection, the cells were incubated for 5 h with (10-20)N-Ter-Antp peptide (20 μM) and then analyzed for apoptosis using acridine orange and ethidium bromide staining, as described previously ([McGahon et al., 1995]). Fluorescence microscopy images were analyzed and about 100 to 300 cells were counted for each treatment in representative microscopic fields. The significance of quantitative analysis of triplicates of different biological repeats (n = 3) was performed by one-way Anova; ^∗∗P < 0.01.

U-87MG cells = test: Cell death, PI staining and flow cytometry, U-87MG; type: cell-based, human; conditions: 5 h, serum-free medium, 37°C
Description: as §2, §3

A549 cells = test: Cell death, PI staining and flow cytometry, A549; type: cell-based, human; conditions: 5 h, serum-free medium, 37°C
Description: as §2, §3

[2] = tested on: SH-SY5Y cells expressing SOD1^G93A or SOD1^G37R; test: Co-localization of misfolded SOD1 with VDAC1, immunostaining and confocal microscopy; type: cell-based; conditions: peptide 20 μM, 5 h, 24 h post-transfection; anti-VDAC1 and B8H10 antibodies
Description: For immunostaining, SH-SY5Y cells (4.5 × 10^4) were grown on sterilized coverslips in 24-well plates. 30 h post-transfection, cells were fixed using 4% paraformaldehyde (PFA; diluted in PBS) for 15 min, and then washed 3 times with PBS (5 min each wash). Cells were then permeabilized with 0.3% Triton X-100 in PBS for 5 min followed by washing with PBS. Cells were then blocked for 1 h with blocking buffer (1% BSA free fatty acids diluted in PBS). Anti-VDAC1 polyclonal antibody (ab15895) and mouse anti misfolded SOD1 (B8H10, Medimabs) were incubated at room temperature for 1–2 h in a buffer of 1% BSA free fatty acids and 0.3% Triton-X100 in PBS. Following incubation with primary antibodies, cells were washed with PBS and incubated with fluorescent conjugated secondary Alexa Flour 488 anti-rabbit and Alexa flour 647 anti-mouse antibodies. The coverslips were carefully dried and mounted on slides using Immumount (Immumount^TM, Thermo). After overnight drying, images were acquired on an Olympus IX81 confocal microscope.
Twenty-four hours post-transfection, the cells were incubated for 5 h with (10-20)N-Ter-Antp peptide (20 μM) and then analyzed for co-localization using a confocal microscope. […] Scale bar, 10 μm.

[3] = tested on: NSC-34 cells transfected to express human mutant SOD1^G93A; test: Rescue of mutant SOD1^G93A toxicity, cell viability (XTT / CellTiter 96 AQueous); type: cell-based, mouse; conditions: NSC-34 cells expressing SOD1^G93A, increasing peptide concentrations, 5 h, XTT assay; n = 3
Description: as §2, §3
Cell viability was quantified using the XTT assay and apoptosis using acridine orange and ethidium bromide staining. […] Importantly, this effect was observed using the three non-cell death-inducing VDAC1-derived N-terminal peptides, i.e., the (1-20)-N-Ter-Antp, (5-20)-N-Ter-Antp and (10-20)-N-Ter-Antp peptides.

[4] = tested on: SH-SY5Y cells expressing mutant SOD1^G37R; test: Apoptosis, acridine orange/ethidium bromide staining, SOD1^G37R; type: cell-based; conditions: peptide 20 μM, 5 h, 24 h post-transfection, n = 3
Description: (§4) Apoptotic cell death was also analyzed using Acridine Orange (AcOr)/ethidium bromide (EtBr) staining ([McGahon et al., 1995]). Cells in 24-well plates were washed with 200 μl PBS and 10 μl of a solution containing […] in PBS was added. The cells were then visualized by fluorescence microscopy (ZOE fluorescence cell imager, Bio-Rad), images were recorded and cells at early and late apoptotic stages were counted.
as §3, with “The significance of quantitative analysis of triplicates of different biological repeats (n = 3) was performed by one-way Anova; ^∗∗P < 0.01.” left out

[5] = tested on: SH-SY5Y cells expressing mutant SOD1^G93A; test: Apoptosis, acridine orange/ethidium bromide staining, SOD1^G93A; type: cell-based; conditions: peptide 20 μM, 5 h, 24 h post-transfection, n = 3
Description: as §4
as §3, with “The significance of quantitative analysis of triplicates of different biological repeats (n = 3) was performed by one-way Anova; ^∗∗P < 0.01.” left out

SOD1^G93A = biological target: T3, SOD1^G93A (Homo sapiens, UniProt P00441, G94A); test: Microscale thermophoresis (MST) binding to SOD1^G93A
T3 construct: made in house; host or cells: sf-9 cells
T3 sequence (P00441 whole entry G94A): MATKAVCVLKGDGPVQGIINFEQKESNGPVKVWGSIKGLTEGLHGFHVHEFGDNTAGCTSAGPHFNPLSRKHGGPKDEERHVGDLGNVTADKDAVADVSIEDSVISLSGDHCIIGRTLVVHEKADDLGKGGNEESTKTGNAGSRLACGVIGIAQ
Description: (§5) Recombinant hSOD1^wt, hSOD1^G93A, and hSOD1^G85R were expressed in sf-9 cells and purified by hydrophobic interaction chromatography using phenyl-Sepharose 6 Fast Flow high sub (Amersham Biosciences), followed by ion exchange chromatography using a HiTrap Q-Sepharose anion exchange column (Amersham Biosciences), as described previously ([Hayward et al., 2002]).
(§6) Microscale thermophoresis analysis was performed using a NanoTemper Monolith NT.115 apparatus, as recently described ([Wienken et al., 2010]; [Zillner et al., 2012]). […] The results are presented as the bound fraction, calculated as follows: fraction bound 100 × (F − Fmin)/(Fmax − Fmin).
(§7) MST measures any variation in the thermal movement of a fluorescently labeled binding partner. The subsequent fluorescence depletion in a heated spot of the protein solution is measured as a function of increasing interacting partner concentration, with dissociation constants (KD) values being derived from the depletion curves ([Wienken et al., 2010]; Figure 1D).
(§8) Molecular weight standards are presented. […] After 20 min of incubation, 3–5 μl aliquots were loaded into MST-grade glass capillaries (NanoTemper Technologies) and thermophoresis was measured with a NanoTemper Monolith-NT115 system. The percentage change in normalized fluorescence (ΔF Norm %) is plotted as a function of protein concentration. […]

SOD1^G85R = biological target: T4, SOD1^G85R (Homo sapiens, UniProt P00441, G86R); test: Microscale thermophoresis (MST) binding to SOD1^G85R; conditions: fluorescently labeled SOD1^G85R 230 nM, peptide 0.001–50 μM, 10 mM HEPES pH 7.4, 20 min, duplicate reads of triplicate experiments, read-out: EC50 (binding affinity, dissociation constant) of peptide to SOD1^G85R
T4 construct: made in house; host or cells: sf-9 cells
T4 sequence (P00441 whole entry G86R): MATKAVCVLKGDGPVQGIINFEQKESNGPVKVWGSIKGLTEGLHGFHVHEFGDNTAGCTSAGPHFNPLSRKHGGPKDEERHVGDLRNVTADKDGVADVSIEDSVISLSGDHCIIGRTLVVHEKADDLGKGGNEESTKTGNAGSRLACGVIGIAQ
Description: as §5, §6, §7, §8

SOD1^WT = biological target: T5, SOD1^WT (Homo sapiens, UniProt P00441); test: Microscale thermophoresis (MST) binding to SOD1^WT; conditions: read-out: EC50 (binding affinity, dissociation constant) of peptide to SOD1^WT
T5 construct: made in house; host or cells: sf-9 cells
T5 sequence (P00441 whole entry): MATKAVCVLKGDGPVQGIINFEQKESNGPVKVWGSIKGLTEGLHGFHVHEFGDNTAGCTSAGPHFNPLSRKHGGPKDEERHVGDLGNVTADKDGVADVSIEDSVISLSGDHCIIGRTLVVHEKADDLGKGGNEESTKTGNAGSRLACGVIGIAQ
Description: as §5, §6, §7, §8

T1 sequence (Q60932 40-296, stated change not applied): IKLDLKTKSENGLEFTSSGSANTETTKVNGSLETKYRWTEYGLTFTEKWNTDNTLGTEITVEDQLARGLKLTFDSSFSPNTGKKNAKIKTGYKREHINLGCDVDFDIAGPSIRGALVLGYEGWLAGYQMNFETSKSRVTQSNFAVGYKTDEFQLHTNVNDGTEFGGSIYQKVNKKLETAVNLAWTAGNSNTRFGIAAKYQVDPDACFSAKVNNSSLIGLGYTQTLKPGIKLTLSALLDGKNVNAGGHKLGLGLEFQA

Compound	Conductance, ΔN-VDAC1 + SOD1 (ΔN-VDAC1) [nS]	Cell death induction in NSC-34 cells (NSC-34 cells)	Cell death induction in U-87MG cells (U-87MG cells)	Cell death induction in A549 cells (A549 cells)	further results
SOD1^WT: recombinant wild type human SOD1 expressed in sf-9 cells	3.69 ± 0.13				effect on VDAC1 current ([1]; highest concentration 60 μg/ml, current-time traces at −10 or 10 mV): had no effect on the current; Conductance, VDAC1 + SOD1 [1]: 3.84 ± 0.1 nS
1-MAVPPTYADLGKSARDVFTKG YGFGL-26- RQIKIWFQNRRMKWKK [(1-26)-N-Ter-Antp]		induced massive cell death	induced massive cell death	induced massive cell death	
10-LGKSARDVFTK-20- RQIKIWFQNRRMKWKK [(10-20)-N-Ter-Antp, like (1-20)-N-Ter-Antp but shortened by nine amino acids at the N-terminus]		could not induce cell death	could not induce cell death	could not induce cell death	Co-localization of misfolded SOD1 with VDAC1 [2]: co-localization was greatly eliminated; Effect on SOD1^G93A toxicity (cell viability) [3]: reduced the toxic effect of SOD1^G93A in a concentration-dependent manner; decrease of SOD1^G37R-mediated cell death [4]: 81%; decrease of SOD1^G93A-mediated cell death [5]: 68%
159-ETAKSRVTQSNFAVGYKT-177 [LP3, reference compound]					Binding to mutant SOD1 compared with the (1-26)-N-terminal peptide (SOD1^G93A; MST, fluorescently labeled SOD1^G93A 675 nM, LP3 6–40 μM, HEPES buffer): significantly lower binding to mutant SOD1
SOD1^G93A: recombinant human mutant SOD1 G93A expressed in sf-9 cells	3.45 ± 0.01				
14-RDVFTKGYGFGL-26- RQIKIWFQNRRMKWKK [D-(15-26)-N-Ter-Antp]		induced massive cell death	induced massive cell death	induced massive cell death	
SOD1^G85R: recombinant human mutant SOD1 G85R expressed in sf-9 cells	3.92 ± 0.08				Conductance, VDAC1 + SOD1 [1]: 2.3 ± 0.35 nS
CSCC[C@H](N)C(=O)N[C@@H](C)C(=O)N[C@H](C(=O)N1CCC[C@H]1C(=O)N1CCC[C@H]1C(=O)N[C@H](C(=O)N[C@@H](Cc1ccc(O)cc1)C(=O)N[C@@H](C)C(=O)N[C@@H](CC(=O)O)C(=O)N[C@@H](CC(C)C)C(=O)NCC(=O)N[C@@H](CCCCN)C(=O)N[C@@H](CO)C(=O)N[C@@H](C)C(=O)N[C@@H](CCCNC(=N)N)C(=O)N[C@@H](CC(=O)O)C(=O)N[C@H](C(=O)N[C@@H](Cc1ccccc1)C(=O)N[C@H](C(=O)N[C@@H](CCCCN)C(=O)NCC(=O)N[C@@H](Cc1ccc(O)cc1)C(=O)NCC(=O)N[C@@H](Cc1ccccc1)C(=O)NCC(=O)N[C@@H](CC(C)C)C(=O)O)[C@@H](C)O)C(C)C)[C@@H](C)O)C(C)C [(1-26)N-Terminal]					EC50 (SOD1^G85R): 3.75 µM; EC50 (SOD1^WT): > 200 µM; EC50 (SOD1^G93A): 3.75 µM
5-PTYADLGKSARDVFTK-20- RQIKIWFQNRRMKWKK [(5-20)-N-Ter-Antp, like (1-20)-N-Ter-Antp but shortened by four amino acids at the N-terminus]		could not induce cell death	could not induce cell death	could not induce cell death	Effect on SOD1^G93A toxicity (cell viability) [3]: reduced the toxic effect of SOD1^G93A in a concentration-dependent manner

Source: article PMC6702328, “A VDAC1-Derived N-Terminal Peptide Inhibits Mutant SOD1-VDAC1 Interactions and Toxicity in the SOD1 Model of ALS” (Frontiers in Cellular Neuroscience, 2019)
